Assay results taken from EP0211354A2, “Nucleosides and their use as antineoplastic agents” (MERRELL DOW PHARMACEUTICALS INC., priority 1985, dated 1987).
Marks after values point to notes of the source that are not given here.

Experiments:
L1210 mouse leukemia = assay: Antitumor activity against L1210 mouse leukemia (survival time); type: in vivo; conditions: for CURES: cured = surviving more than 30 days
Description: 1 × 10⁵ L1210 leukemia cells per animal were injected i.p. on day 0. Treatment with the drug was started on day 1. The compound was dissolved in sterile water and administered i.p. at the doses indicated from day 1 to day 9 once daily. Therapeutic effect of the compound was determined by determining the survival time of the treated group in comparison with control group as follows: [formula] *Animals surviving for more than 30 days are considered cured.

Hela Cells = assay: Growth of Hela cells in culture (cell count after 72 hours); type: cell-based
Description: Hela cells (1 × 10⁵/35 mm dish) were plated and incubated at 37°C in a CO₂ (5%) incubator. Media containing different dilutions of MDL 27,069 were added after overnight incubation. At the end of 72 hours, the cells were collected by trypsinization and counted using a coulter counter. *All cells were killed.

[1] = 0,01 mg/kg i.p. once daily day 1 to day 9
[2] = 0.25 mg/kg i.p. once daily day 1 to day 9
[3] = 0.5 mg/kg i.p. once daily day 1 to day 9
[4] = 1.0 mg/kg i.p. once daily day 1 to day 9

In the case of `Nc1ccn([C@@H]2O[C@H](CO)[C@@H](O)C2(F)F)c(=O)n1` [MDL 27,069, 2'-desoxy-2',2'-difluorocytidine], the “MEAN SURVIVAL TIME” value (L1210 mouse leukemia; [1]) is reported as 13.25 days, the “o/o T/C” value (L1210 mouse leukemia; [1]) is reported as 189 o/o and the CURES (L1210 mouse leukemia; [1]) is reported as 0/5. For the same molecule, the “MEAN SURVIVAL TIME” value (L1210 mouse leukemia; [2]) was 13.40 days, the “o/o T/C” value (L1210 mouse leukemia; [2]) was 191 o/o and the CURES (L1210 mouse leukemia; [2]) was 0/5. For the same molecule, the “o/o T/C” value (L1210 mouse leukemia; [3]) was 249 o/o, the CURES (L1210 mouse leukemia; [3]) was 0/5 and the “MEAN SURVIVAL TIME” value (L1210 mouse leukemia; [4]) was 20.0 days. For the same molecule, the “o/o T/C” value (L1210 mouse leukemia; [4]) was 286 o/o, the CURES (L1210 mouse leukemia; [4]) was 2/5* and the “Cell Number” value (Hela Cells; 0.00062 μg/ml) was 2.0 X10^5. The “Cell Number” value (Hela Cells; 0.00125 μg/ml) was 1.17 X10^5, the “Cell Number” value (Hela Cells; 0.0025 μg/ml) was 0.51 X10^5 and the “Cell Number” value (Hela Cells; 0.005 μg/ml) was 0.36 X10^5. For the same molecule, the “Cell Number” value (Hela Cells; 0.01 μg/ml, *All cells were killed) was 0* X10^5, the inhibition at 0.00062 µg/mL (Hela Cells; Homo sapiens, 0.00062 μg/ml) was 48% and the inhibition at 0.00125 µg/mL (Hela Cells; Homo sapiens, 0.00125 μg/ml) was 70%. It also gave an inhibition at 0.0025 µg/mL (Hela Cells; Homo sapiens, 0.0025 μg/ml) of 87%, an inhibition at 0.005 µg/mL (Hela Cells; Homo sapiens, 0.005 μg/ml) of 91% and an inhibition at 0.01 µg/mL (Hela Cells; Homo sapiens, 0.01 μg/ml) of 100%.
